According to ChEMBL document CHEMBL1201862, “PubChem BioAssay data set” (2004):
Active and inactive are the calls of the source.

Legend:
[1] = biological target: T1, G-protein coupled receptor 55 (Homo sapiens, UniProt Q9Y2T6); assay: selective activators of receptor GPR55 – imaging, U2OS cells, beta-arrestin-GFP redistribution, primary screen (AID 1961); assay type: functional
[2] = biological target: T2, Alkaline phosphatase, tissue-nonspecific isozyme (Homo sapiens, UniProt P05186); assay: potency against alkaline phosphatase TNAP – biochemical, luminescent, dose response, SAR follow-up (AID 1056)
T2 sequence (P05186 whole entry): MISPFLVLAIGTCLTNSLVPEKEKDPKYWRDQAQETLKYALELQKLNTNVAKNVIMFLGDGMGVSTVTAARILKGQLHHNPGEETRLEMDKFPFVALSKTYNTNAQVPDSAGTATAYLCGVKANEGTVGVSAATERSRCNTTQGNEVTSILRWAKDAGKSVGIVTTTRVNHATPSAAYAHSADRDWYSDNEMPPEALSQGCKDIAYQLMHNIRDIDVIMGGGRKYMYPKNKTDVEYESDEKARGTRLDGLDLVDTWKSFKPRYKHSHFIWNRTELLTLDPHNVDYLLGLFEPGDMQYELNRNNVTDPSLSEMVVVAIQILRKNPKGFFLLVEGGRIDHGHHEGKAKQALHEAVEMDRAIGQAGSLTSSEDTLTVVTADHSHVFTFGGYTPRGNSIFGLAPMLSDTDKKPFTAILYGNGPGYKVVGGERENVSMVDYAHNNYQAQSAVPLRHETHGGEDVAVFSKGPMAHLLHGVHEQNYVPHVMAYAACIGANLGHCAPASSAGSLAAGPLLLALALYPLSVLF

[3] = biological target: Alkaline phosphatase, placental type (Homo sapiens, UniProt P05187); assay: human placental alkaline phosphatase inhibition – biochemical, luminescence, confirmation (AID 1512); assay type: functional
[4] = biological target: Glucose-6-phosphate 1-dehydrogenase (Homo sapiens, UniProt P11413); assay: inhibition of Homo sapiens G6PD, dose series – biochemical, fluorescence, selectivity assay for P. falciparum G6PD inhibitor project, dose response (AID 504792); assay type: functional
[5] = biological target: T3, DNA dC->dU-editing enzyme APOBEC-3G (Homo sapiens, UniProt Q9HC16); assay: Dose Response confirmation of small molecule APOBEC3G DNA Deaminase Inhibitors via a fluorescence-based single-stranded DNA deaminase assay. [Related pubchem assays (depositor defined):AID493012, AID493028]; assay type: functional
[6] = biological target: T4, DNA dC->dU-editing enzyme APOBEC-3A (Homo sapiens, UniProt P31941); assay: A3A deaminase inhibition for selectivity – biochemical, dose response (AID 504722); assay type: functional
[7] = biological target: T4, DNA dC->dU-editing enzyme APOBEC-3A; assay: Dose Response confirmation of small molecule APOBEC3A DNA Deaminase Inhibitors via a fluorescence-based single-stranded DNA deaminase assay. [Related pubchem assays (depositor defined):AID493011, AID493024]; assay type: functional
[8] = biological target: T3, DNA dC->dU-editing enzyme APOBEC-3G; assay type: functional
Troponin, cardiac muscle = Troponin, cardiac muscle (Homo sapiens, UniProt P19429+P45379+P63316); assay: Fluorescence-based biochemical high throughput dose response assay for activators of the calcium sensitivity of cardiac Regulated Thin Filaments (RTF). [Related pubchem assays (depositor defined):AID493008, AID493018, AID504382, AID504383]; assay type: protein-complex assay
[9] = biological target: T1, G-protein coupled receptor 55; assay: inhibition of LPI-stimulated GPR55 beta-arrestin translocation – imaging, U2OS, beta-arrestin-GFP, LPI agonist, primary screen (AID 2013); assay type: functional;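 note: antagonist potency measured as reduced agonist-driven arrestin aggregation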
[10] = biological target: Glyceraldehyde-3-phosphate dehydrogenase (Homo sapiens, UniProt P04406)
[11] = microbe, parasite or virus in culture; assay type: functional; conditions: Mycobacterium tuberculosis
[12] = biological target: FAD-linked sulfhydryl oxidase ALR (Homo sapiens, UniProt P55789); assay: ALR-catalysed DTT oxidation blockers – biochemical, H2O2 detection, luminescence, cherry-pick, dose response (AID 493248)
[13] = biological target: T5, Rac GTPase-activating protein 1 (Homo sapiens, UniProt Q9H0H5); assay: blockers of MgcRacGAP-driven Rac1 GTP hydrolysis – biochemical, ADP Hunter fluorescence, primary and confirmatory, confirmation (AID 624330); assay type: functional
T5 sequence (Q9H0H5 whole entry): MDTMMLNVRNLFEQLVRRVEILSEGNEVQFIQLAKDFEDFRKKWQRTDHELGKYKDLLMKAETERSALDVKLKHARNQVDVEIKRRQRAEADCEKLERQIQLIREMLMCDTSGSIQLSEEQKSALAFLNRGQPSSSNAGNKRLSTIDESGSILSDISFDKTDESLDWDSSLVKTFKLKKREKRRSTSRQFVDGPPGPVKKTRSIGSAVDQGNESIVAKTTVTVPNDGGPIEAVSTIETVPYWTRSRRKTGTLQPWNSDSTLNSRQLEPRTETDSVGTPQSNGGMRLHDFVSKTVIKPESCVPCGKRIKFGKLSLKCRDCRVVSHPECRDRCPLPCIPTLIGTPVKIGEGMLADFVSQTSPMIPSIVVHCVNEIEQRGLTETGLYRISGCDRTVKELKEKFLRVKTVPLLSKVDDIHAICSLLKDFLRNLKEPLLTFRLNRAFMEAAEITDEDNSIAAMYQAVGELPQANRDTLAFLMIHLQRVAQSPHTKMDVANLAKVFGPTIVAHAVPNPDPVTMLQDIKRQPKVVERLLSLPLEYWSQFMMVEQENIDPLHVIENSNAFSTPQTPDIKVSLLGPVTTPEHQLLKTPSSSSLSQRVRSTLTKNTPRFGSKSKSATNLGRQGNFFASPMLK

[14] = biological target: T6, Carboxy-terminal domain RNA polymerase II polypeptide A small phosphatase 1 (Homo sapiens, UniProt Q9GZU7); assay: CTDSP1 inhibitors, concentration-response, biochemical, absorbance readout, ultra-high-throughput screen actives (AID 540297); assay type: functional
T6 sequence (Q9GZU7 whole entry): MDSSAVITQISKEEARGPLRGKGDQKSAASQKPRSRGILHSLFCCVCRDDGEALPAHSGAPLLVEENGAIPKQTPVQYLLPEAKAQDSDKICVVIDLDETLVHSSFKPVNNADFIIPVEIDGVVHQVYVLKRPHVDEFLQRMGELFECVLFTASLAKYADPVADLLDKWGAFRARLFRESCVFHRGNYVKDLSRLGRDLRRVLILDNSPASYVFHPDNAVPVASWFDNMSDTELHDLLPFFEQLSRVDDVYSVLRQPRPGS

Caspase-6 = biological target: T7, Caspase-6 (Homo sapiens, UniProt P55212); assay: inhibition of CASP6 peptide cleavage – biochemical, VEID-R110 fluorescence, cherry-pick, dose response (AID 720632)
T7 sequence (P55212 whole entry): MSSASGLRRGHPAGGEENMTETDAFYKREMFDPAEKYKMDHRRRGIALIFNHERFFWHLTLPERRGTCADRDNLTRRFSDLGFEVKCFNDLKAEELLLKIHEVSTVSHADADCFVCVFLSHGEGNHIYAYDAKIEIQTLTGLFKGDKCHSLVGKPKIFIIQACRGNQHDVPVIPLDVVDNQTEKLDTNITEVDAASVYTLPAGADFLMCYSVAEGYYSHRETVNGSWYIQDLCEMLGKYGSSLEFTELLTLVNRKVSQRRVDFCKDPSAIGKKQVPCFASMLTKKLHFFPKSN

Alkaline phosphatase, placental type, sequence (P05187 whole entry): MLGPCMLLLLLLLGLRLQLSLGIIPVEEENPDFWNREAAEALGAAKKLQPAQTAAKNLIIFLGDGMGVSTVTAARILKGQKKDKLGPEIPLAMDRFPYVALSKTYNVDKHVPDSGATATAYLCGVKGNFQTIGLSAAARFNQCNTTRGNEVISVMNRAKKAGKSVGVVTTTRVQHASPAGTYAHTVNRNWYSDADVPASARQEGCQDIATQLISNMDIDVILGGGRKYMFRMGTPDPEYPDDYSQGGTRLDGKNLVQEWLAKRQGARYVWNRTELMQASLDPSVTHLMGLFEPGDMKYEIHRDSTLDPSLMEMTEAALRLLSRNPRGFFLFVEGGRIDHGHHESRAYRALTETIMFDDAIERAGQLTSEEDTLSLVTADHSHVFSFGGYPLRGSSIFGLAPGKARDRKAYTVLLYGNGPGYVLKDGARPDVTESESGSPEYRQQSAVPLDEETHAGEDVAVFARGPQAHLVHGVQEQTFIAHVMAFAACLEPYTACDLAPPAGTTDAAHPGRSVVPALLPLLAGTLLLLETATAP
T4 sequence (P31941 whole entry): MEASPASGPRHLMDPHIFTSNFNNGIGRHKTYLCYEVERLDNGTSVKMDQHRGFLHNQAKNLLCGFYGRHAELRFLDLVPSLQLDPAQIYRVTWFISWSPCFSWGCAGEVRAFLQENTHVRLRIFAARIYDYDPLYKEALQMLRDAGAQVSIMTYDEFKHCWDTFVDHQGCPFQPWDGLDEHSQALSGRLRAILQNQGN
T1 sequence (Q9Y2T6 whole entry): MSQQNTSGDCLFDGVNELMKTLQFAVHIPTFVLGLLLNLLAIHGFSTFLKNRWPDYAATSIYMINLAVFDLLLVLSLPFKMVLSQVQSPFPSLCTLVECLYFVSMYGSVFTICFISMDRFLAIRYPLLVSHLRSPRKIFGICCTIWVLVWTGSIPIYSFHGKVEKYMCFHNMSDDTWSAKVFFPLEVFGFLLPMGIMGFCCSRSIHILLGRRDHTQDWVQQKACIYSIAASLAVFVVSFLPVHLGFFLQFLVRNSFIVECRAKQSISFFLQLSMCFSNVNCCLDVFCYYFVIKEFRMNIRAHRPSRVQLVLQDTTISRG
Glyceraldehyde-3-phosphate dehydrogenase, sequence (P04406 whole entry): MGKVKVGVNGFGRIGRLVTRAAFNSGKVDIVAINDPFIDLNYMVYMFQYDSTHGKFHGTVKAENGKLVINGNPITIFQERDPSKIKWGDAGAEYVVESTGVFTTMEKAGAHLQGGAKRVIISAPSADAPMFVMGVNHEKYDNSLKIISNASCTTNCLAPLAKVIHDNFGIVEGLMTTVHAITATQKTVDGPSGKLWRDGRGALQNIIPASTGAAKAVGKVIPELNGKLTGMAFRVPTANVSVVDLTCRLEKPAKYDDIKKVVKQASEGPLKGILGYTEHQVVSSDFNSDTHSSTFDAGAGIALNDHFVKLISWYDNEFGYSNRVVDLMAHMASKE
T3 sequence (Q9HC16 whole entry): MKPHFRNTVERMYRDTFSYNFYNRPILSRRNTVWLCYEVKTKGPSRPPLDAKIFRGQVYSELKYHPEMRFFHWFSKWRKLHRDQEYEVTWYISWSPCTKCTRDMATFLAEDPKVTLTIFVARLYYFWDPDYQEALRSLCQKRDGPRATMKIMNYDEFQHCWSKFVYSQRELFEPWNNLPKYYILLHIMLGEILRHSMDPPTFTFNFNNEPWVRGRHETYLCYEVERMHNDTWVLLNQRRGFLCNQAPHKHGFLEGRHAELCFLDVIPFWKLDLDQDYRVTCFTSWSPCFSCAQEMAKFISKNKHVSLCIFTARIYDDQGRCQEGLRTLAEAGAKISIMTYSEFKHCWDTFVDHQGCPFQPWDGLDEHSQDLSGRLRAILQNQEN
FAD-linked sulfhydryl oxidase ALR, sequence (P55789 whole entry): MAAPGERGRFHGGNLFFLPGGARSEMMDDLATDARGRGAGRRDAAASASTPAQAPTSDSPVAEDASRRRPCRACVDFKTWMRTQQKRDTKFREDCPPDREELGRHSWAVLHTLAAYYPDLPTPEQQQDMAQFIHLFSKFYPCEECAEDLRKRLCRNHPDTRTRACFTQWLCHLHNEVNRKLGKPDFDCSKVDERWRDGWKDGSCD
Glucose-6-phosphate 1-dehydrogenase, sequence (P11413 whole entry): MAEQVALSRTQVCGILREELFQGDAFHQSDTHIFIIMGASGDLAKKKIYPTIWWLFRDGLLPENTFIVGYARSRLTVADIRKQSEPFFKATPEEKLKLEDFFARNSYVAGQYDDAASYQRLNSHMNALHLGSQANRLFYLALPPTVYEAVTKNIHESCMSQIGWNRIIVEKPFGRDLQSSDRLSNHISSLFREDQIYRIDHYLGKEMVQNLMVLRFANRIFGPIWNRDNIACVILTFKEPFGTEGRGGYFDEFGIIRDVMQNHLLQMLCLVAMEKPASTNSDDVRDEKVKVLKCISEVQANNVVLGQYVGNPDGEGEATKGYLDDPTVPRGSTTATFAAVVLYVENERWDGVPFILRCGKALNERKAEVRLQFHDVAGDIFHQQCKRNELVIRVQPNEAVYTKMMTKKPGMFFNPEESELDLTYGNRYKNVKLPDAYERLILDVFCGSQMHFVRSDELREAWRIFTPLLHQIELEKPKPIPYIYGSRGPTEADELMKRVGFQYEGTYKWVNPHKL

COc1ccc(SC[C@H](CC(C)C)N2CCN(CCc3ccccc3)CCC2=O)cc1
EC50 [1]: 10.8 µM (inactive)

Cc1ccc(C)c(NC(=S)NC(NC(=O)Cc2cccc3ccccc23)C(Cl)(Cl)Cl)c1 (stereo not drawn)
IC50 [2]: > 100 µM (inactive)
IC50 [3]: 11.5 µM (active)

Cc1ccc(NC(=O)Cn2sc3nc(C)cc(C)c3c2=O)c(Cl)c1
IC50 [4]: 30.5 µM (inactive)
IC50 [5]: 4.88 µM (active)
IC50 [6]: > 100 µM (inactive)

COC(=O)C1=C(C)N(Cc2ccccc2)C(NCc2ccc(OC)cc2)=N[C@H]1c1ccccc1
IC50 [7]: 5.01 µM (active)
IC50 [8]: 10.8 µM (active)

O=C(/C=C/c1cn(CC(O)CN2CCCCC2)c2ccccc12)c1cccs1 (stereo not drawn)
EC50 (Troponin, cardiac muscle): 17.9 µM (inactive)

N#CC1=C(S)N(c2ccccc2)C(c2ccc(-c3cc(Cl)ccc3Cl)o2)NC1=O (stereo not drawn)
EC50 [1]: > 32 µM (inactive)

COc1ccc(C23CC4CC(CC(C4)C2)C3)cc1C(=O)NCCN(C)C
IC50 [9]: 1.37 µM (active)

COc1ccc(-c2c(-c3ccc(OCC(=O)NN)cc3O)n[nH]c2C(F)(F)F)cc1
IC50 [9]: 2.75 µM (active)

CC1(C)CC(=O)c2c(-c3ccc(F)cc3)n[nH]c2C1
IC50 [2]: 5.95 µM (active)
IC50 [3]: > 100 µM (inactive)
IC50 [10]: > 100 µM (not active)

O=C(NNC(=S)NC(=O)c1ccccc1[N+](=O)[O-])c1ccccc1[N+](=O)[O-]
IC50 [3]: > 100 µM (inactive)

O=C1c2ccccc2C(=O)N1c1nncs1
IC50 [2]: > 100 µM (inactive)
IC50 [10]: > 100 µM (not active)

COC(=O)C1=C(C)N(CC2CC2)C(=NCCN2CCOCC2)N[C@H]1c1ccccc1
IC50 [7]: 5.16 µM (active)
IC50 [8]: 4.91 µM (active)

COc1ccc(-c2csc3nc(-c4ccccc4OC)oc(=O)c23)cc1
EC50 [1]: 25 µM (inactive)
CC50 [11]: 30.8 µM (active)

O=C(O)c1cc(NS(=O)(=O)c2ccc(NC3CCCCC3)c([N+](=O)[O-])c2)cc(C(=O)O)c1
IC50 [9]: 5.62 µM (active)

Sc1nc(-c2ccc(Cl)cc2Cl)n[nH]1
IC50 [2]: > 100 µM (inactive)
IC50 [3]: > 100 µM (inactive)
IC50 [10]: > 100 µM (not active)

COc1ccc(/C=N/NC(=O)c2cc(C34CC5CC(CC(C5)C3)C4)[nH]n2)cc1OC
IC50 [9]: 2.74 µM (active)

Cc1ccc(/C=N/n2c(S)nnc2-c2cccnc2)s1
AC50 [12]: 2.34 µM (active)
IC50 [13]: 53.9 µM (active)
IC50 [5]: 2 µM (active)
IC50 [6]: > 100 µM (inactive)

O=C1C2C(C(=O)N1/N=C/c1cc([N+](=O)[O-])c(O)cc1O)C1C=CC2C12CC2 (stereo not drawn)
IC50 [14]: 4.9 µM (active)
IC50 [7]: 11.3 µM (active)
IC50 [8]: 40.2 µM (active)
AC50 (Caspase-6): 3.41 µM (active)

O=C(CO/N=C/c1ccccc1OC(F)F)NCc1cccs1
EC50 (Troponin, cardiac muscle): > 71.5 µM (inactive)

Cc1c2ccccc2cc(Cc2ccccc2)[n+]1C
IC50 [7]: 3.64 µM (active)
IC50 [8]: 2.98 µM (active)
